Key:
Test in all cases: relative viability (nuclei count vs DMSO), 5 days (fraction); higher = more cells survive
[1] = compound: CC1=NC=CC(=C1)C2=CC=C(C=C2)CC(=O)NC3=CC=C(C=C3)C4=CN=CC=C4 [Wnt-C59] + CC1(C)CCC(c2ccc(Cl)cc2)=C(CN2CCN(c3ccc(C(=O)NS(=O)(=O)c4ccc(N[C@H](CCN5CCOCC5)CSc5ccccc5)c(S(=O)(=O)C(F)(F)F)c4)cc3)CC2)C1 [Navitoclax] (partner 0.5 µM)
In short: (§1)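 Dosing by pin tool came one day after lung cancer cell lines were seeded in 1536-well plates, using either one drug or a fixed anchor-drug dose plus five library-drug doses (not always all listed) in √10 steps. After 5 days, nuclei were counted on 4× images. Relative viability is treated-well nuclei count divided by vehicle-well nuclei count, and values are medians of duplicate plates.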

[2] = compound: CC1=NC=CC(=C1)C2=CC=C(C=C2)CC(=O)NC3=CC=C(C=C3)C4=CN=CC=C4 [Wnt-C59] + O=C(c1cc(Cc2n[nH]c(=O)c3ccccc23)ccc1F)N1CCN(C(=O)C2CC2)CC1 [Olaparib] (partner 8 µM)
In short: as §1

[3] = compound: CC1=NC=CC(=C1)C2=CC=C(C=C2)CC(=O)NC3=CC=C(C=C3)C4=CN=CC=C4 [Wnt-C59] + CC(=O)c1c(C)c2cnc(Nc3ccc(N4CCNCC4)cn3)nc2n(C2CCCC2)c1=O [Palbociclib] (partner 0.5 µM)
In short: as §1

[4] = compound: CS(=O)(=O)CCNCc1ccc(-c2ccc3ncnc(Nc4ccc(OCc5cccc(F)c5)c(Cl)c4)c3c2)o1 [Lapatinib] + O=C(CCCCCCC(=O)Nc1ccccc1)NO [Vorinostat] (partner 1 µM)
In short: as §1

For UMC-11, the relative viability ([1]; first compound 0.001 µM) was 0.312, the relative viability ([1]; first compound 0.01 µM) was 0.315 and the relative viability ([1]; first compound 0.03162 µM) was 0.265. It also gave a relative viability ([1]; first compound 0.1 µM) of 0.339, a relative viability ([2]; first compound 0.001 µM) of 0.793 and a relative viability ([2]; first compound 0.01 µM) of 0.378. It also gave a relative viability ([2]; first compound 0.03162 µM) of 0.479, a relative viability ([2]; first compound 0.1 µM) of 0.415 and a relative viability ([3]; first compound 0.001 µM) of 0.337. It also gave a relative viability ([3]; first compound 0.01 µM) of 0.319, a relative viability ([3]; first compound 0.03162 µM) of 0.361 and a relative viability ([3]; first compound 0.1 µM) of 0.305. The relative viability ([4]; first compound 0.02 µM) was 0.42, the relative viability ([4]; first compound 0.06325 µM) was 0.384 and the relative viability ([4]; first compound 0.2 µM) was 0.39. The relative viability ([4]; first compound 0.6325 µM) was 0.367 and the relative viability ([4]; first compound 2 µM) was 0.321.
